# Measured values reported in ChEMBL document CHEMBL1909046, “DrugMatrix in vitro pharmacology data”.
# What was measured:
# [1] = DRUGMATRIX: Phosphodiesterase PDE4 enzyme inhibition (substrate: [3H]cAMP + cAMP); conditions: u-937, Not Active = under 50% inhibition at 10 µM
# [2] = DRUGMATRIX: Calcium Channel Type L, Benzothiazepine radioligand binding (ligand: [3H] Diltiazem); type: cell membranes, Rattus norvegicus, Wistar, Brain, Membrane; conditions: Not Active = under 50% inhibition at 10 µM
# [3] = DRUGMATRIX: Phorbol Ester radioligand binding (ligand: [3H] PDBu); type: cell membranes, Mus musculus, ICR, Brain, Membrane; conditions: Not Active = under 50% inhibition at 10 µM
# [4] = target: Prostaglandin G/H synthase 1 (Homo sapiens, UniProt P23219); assay: biochemical; type: tissue-based, Platelet; conditions: platelet;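 note: inhibition of COX-1 enzyme activity, with arachidonic acid supplied as substrate; in other assays of this panel Not Active means under 50% inhibition at 10 µM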
# Sequence of Prostaglandin G/H synthase 1 (P23219 whole entry): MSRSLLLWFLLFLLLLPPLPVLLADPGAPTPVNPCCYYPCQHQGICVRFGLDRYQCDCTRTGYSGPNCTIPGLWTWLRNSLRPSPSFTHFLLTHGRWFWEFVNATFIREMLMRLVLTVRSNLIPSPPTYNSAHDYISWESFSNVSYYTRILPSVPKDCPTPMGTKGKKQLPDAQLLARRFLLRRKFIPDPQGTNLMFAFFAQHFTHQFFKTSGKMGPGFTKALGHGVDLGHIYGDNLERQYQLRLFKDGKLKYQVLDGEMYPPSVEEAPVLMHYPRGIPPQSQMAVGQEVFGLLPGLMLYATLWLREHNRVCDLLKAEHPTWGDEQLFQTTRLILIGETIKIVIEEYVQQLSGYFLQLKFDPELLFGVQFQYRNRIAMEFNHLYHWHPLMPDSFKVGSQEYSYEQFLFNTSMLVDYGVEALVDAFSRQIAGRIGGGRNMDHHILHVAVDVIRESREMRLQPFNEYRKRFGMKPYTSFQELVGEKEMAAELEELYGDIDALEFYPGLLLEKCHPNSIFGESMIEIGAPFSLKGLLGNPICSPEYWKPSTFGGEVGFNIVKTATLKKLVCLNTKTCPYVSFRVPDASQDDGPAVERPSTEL
# [5] = DRUGMATRIX: Interleukin IL-1 radioligand binding (ligand: [125I] interleukin 1beta); type: cell membranes, Membrane; conditions: nih3t3; Not Active = under 50% inhibition at 10 µM
# [6] = target: Sigma non-opioid intracellular receptor 1 (Homo sapiens, UniProt Q99720); assay: DRUGMATRIX: Sigma1 radioligand binding (ligand: [3H] Haloperidol); type: cell membranes, Jurkat, Membrane; conditions: Not Active = under 50% inhibition at 10 µM
# Sequence of Sigma non-opioid intracellular receptor 1 (Q99720 whole entry): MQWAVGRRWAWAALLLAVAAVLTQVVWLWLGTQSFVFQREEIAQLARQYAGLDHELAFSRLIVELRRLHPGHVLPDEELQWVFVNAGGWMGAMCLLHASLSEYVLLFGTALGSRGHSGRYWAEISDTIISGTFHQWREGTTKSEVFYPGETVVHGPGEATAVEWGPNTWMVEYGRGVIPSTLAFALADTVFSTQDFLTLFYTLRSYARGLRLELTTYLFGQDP
# Glycine receptor = Glycine receptor (Rattus norvegicus, UniProt P22771+P24524+P07727+P20781); type: cell membranes, Wistar, Spinal cord, Membrane; note: in other assays of this panel Not Active means under 50% inhibition at 10 µM
Molecule,IC50 [1],Ki [1],IC50 [2],Ki [2],IC50 [3],Ki [3],IC50 [4],IC50 [5],Ki [5],IC50 ([6]; jurkat),IC50 (Glycine receptor),IC50 ([6]; read-out: IC50) [nM],Ki ([6]; read-out: Ki) [nM],Ki [4],Ki ([6]; jurkat),Ki (Glycine receptor),IC50 ([2]; read-out: IC50) [nM],Ki ([2]; read-out: Ki) [nM],IC50 ([1]; read-out: IC50) [nM]
O=C1O[C@H]([C@@H](O)CO)C(O)=C1O [ASCORBIC ACID],Not Active,Not Active,Not Active,Not Active,Not Active,Not Active,Not Active,Not Active,Not Active,Not Active,Not Active,,,,,,,,
NC(=O)C[S+]([O-])C(c1ccccc1)c1ccccc1 (centres undefined) [MODAFINIL],Not Active,Not Active,Not Active,Not Active,Not Active,Not Active,Not Active,Not Active,Not Active,Not Active,Not Active,,,,,,,,
CCN(CC)CCOCCC1=CCC2CC1C2(C)C (centres undefined) [MYRTECAINE],Not Active,Not Active,Not Active,Not Active,Not Active,Not Active,Not Active,Not Active,Not Active,Not Active,Not Active,,,,,,,,
COc1ccc2cc3[n+](cc2c1OC)CCc1cc2c(cc1-3)OCO2.[Cl-] [BERBERINE CHLORIDE],Not Active,Not Active,Not Active,Not Active,Not Active,Not Active,Not Active,Not Active,Not Active,,Not Active,1290,542,,,,,,
GRAMICIDIN,Not Active,Not Active,Not Active,Not Active,Not Active,Not Active,Not Active,Not Active,Not Active,Not Active,Not Active,,,Not Active,Not Active,Not Active,,,
COc1cc([C@@H]2c3cc4c(cc3[C@@H](O[C@@H]3O[C@@H]5CO[C@@H](C)O[C@H]5[C@H](O)[C@H]3O)[C@H]3COC(=O)[C@H]23)OCO4)cc(OC)c1O [ETOPOSIDE],Not Active,Not Active,Not Active,Not Active,Not Active,Not Active,Not Active,Not Active,Not Active,Not Active,Not Active,,,,,,,,
CCC1(C)CC(=O)NC1=O (centres undefined) [ETHOSUXIMIDE],Not Active,Not Active,Not Active,Not Active,Not Active,Not Active,Not Active,Not Active,Not Active,Not Active,Not Active,,,,,,,,
Cc1nnc2n1-c1ccc(Cl)cc1C(c1ccccc1)=NC2 [ALPRAZOLAM],Not Active,Not Active,Not Active,Not Active,Not Active,Not Active,Not Active,Not Active,Not Active,Not Active,Not Active,,,,,,,,
CC(C)=CCC/C(C)=C/CO [GERANIOL],Not Active,Not Active,Not Active,Not Active,Not Active,Not Active,Not Active,Not Active,Not Active,Not Active,Not Active,,,,,,,,
COc1ccc(C(=O)N2CCCC2=O)cc1,Not Active,Not Active,Not Active,Not Active,Not Active,Not Active,Not Active,Not Active,Not Active,Not Active,Not Active,,,,,,,,
GENTAMICIN,Not Active,Not Active,Not Active,Not Active,Not Active,Not Active,Not Active,Not Active,Not Active,Not Active,Not Active,,,Not Active,Not Active,Not Active,,,
CC(C)NNC(=O)c1ccncc1 [IPRONIAZID],Not Active,Not Active,Not Active,Not Active,Not Active,Not Active,Not Active,Not Active,Not Active,Not Active,Not Active,,,,,,,,
CCCNCC(O)COc1ccccc1C(=O)CCc1ccccc1 (centres undefined) [PROPAFENONE],Not Active,Not Active,,,Not Active,Not Active,Not Active,Not Active,Not Active,,Not Active,2610,1100,,,,775,689,
O=c1cc(N2CCOCC2)oc2c(-c3ccccc3)cccc12 [LY-294002],,,Not Active,Not Active,Not Active,Not Active,Not Active,Not Active,Not Active,Not Active,Not Active,,,,,,,,10400
NCCCC(O)(P(=O)(O)O)P(=O)(O)O [ALENDRONIC ACID],Not Active,Not Active,Not Active,Not Active,Not Active,Not Active,Not Active,Not Active,Not Active,Not Active,Not Active,,,,,,,,
Nc1ccc2c3c(cccc13)C(=O)NC2=O,Not Active,Not Active,Not Active,Not Active,Not Active,Not Active,Not Active,Not Active,Not Active,Not Active,Not Active,,,,,,,,
CC(C)(C)NC(=O)[C@H]1CC[C@H]2[C@@H]3CC[C@H]4NC(=O)C=C[C@]4(C)[C@H]3CC[C@]12C [FINASTERIDE],Not Active,Not Active,Not Active,Not Active,Not Active,Not Active,Not Active,Not Active,Not Active,Not Active,Not Active,,,,,,,,
Cn1c(=O)c2[nH]cnc2n(C)c1=O.Cn1c(=O)c2[nH]cnc2n(C)c1=O.NCCN [AMINOPHYLLINE],Not Active,Not Active,Not Active,Not Active,Not Active,Not Active,Not Active,Not Active,Not Active,Not Active,Not Active,,,,,,,,
C#C[C@]1(OC(C)=O)CC[C@H]2[C@@H]3CCC4=C[C@@H](OC(C)=O)CC[C@@H]4[C@H]3CC[C@@]21C [ETHYNODIOL DIACETATE],Not Active,Not Active,Not Active,Not Active,Not Active,Not Active,Not Active,Not Active,Not Active,Not Active,Not Active,,,,,,,,
CN/C(=N\CCSCc1nc[nH]c1C)NC#N [CIMETIDINE],Not Active,Not Active,Not Active,Not Active,Not Active,Not Active,Not Active,Not Active,Not Active,Not Active,Not Active,,,,,,,,
COc1ccc2c3c1O[C@H]1C[C@@H](O)C=C[C@@]31CCN(C)C2 [GALANTAMINE],Not Active,Not Active,Not Active,Not Active,Not Active,Not Active,Not Active,Not Active,Not Active,Not Active,Not Active,,,,,,,,
OC(CCCN1CCCCC1)(c1ccccc1)c1ccccc1 [DIPHENIDOL],Not Active,Not Active,Not Active,Not Active,Not Active,Not Active,Not Active,Not Active,Not Active,,Not Active,256,108,,,,,,
CCC(=O)O[C@]1(C(=O)CCl)[C@@H](C)C[C@H]2[C@@H]3CCC4=CC(=O)C=C[C@]4(C)[C@@]3(F)[C@@H](O)C[C@@]21C [CLOBETASOL PROPIONATE],Not Active,Not Active,Not Active,Not Active,Not Active,Not Active,Not Active,Not Active,Not Active,Not Active,Not Active,,,,,,,,
CCCN(CCC)S(=O)(=O)c1ccc(C(=O)O)cc1 [PROBENECID],Not Active,Not Active,Not Active,Not Active,Not Active,Not Active,Not Active,Not Active,Not Active,Not Active,Not Active,,,,,,,,
O=C(O)CCNC(=O)c1ccccc1 [BETAMIPRON],Not Active,Not Active,Not Active,Not Active,Not Active,Not Active,Not Active,Not Active,Not Active,Not Active,Not Active,,,,,,,,
C[C@H]1O[C@@H](n2cc(F)c(=O)[nH]c2=O)[C@H](O)[C@@H]1O [DOXIFLURIDINE],Not Active,Not Active,Not Active,Not Active,Not Active,Not Active,Not Active,Not Active,Not Active,Not Active,Not Active,,,,,,,,
